In patent US4496551A (priority 1983, dated 1985):

Columns and labels:
[1] = tested on: Puccinia recondita var. tritici; assay: wheat leaf rust control on wheat seedlings; assay type: in vivo; conditions: for pest or weed control at 100 ppm: sprayed day before inoculation
Summary of the method: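 Compounds at 100 ppm (6% acetone, 250 ppm polyhydric alcohol ester surfactant in water) sprayed to run-off on wheat seedlings; inoculated next day with P. recondita spores. Kept 24 h at saturated humidity, 20°, then 7 days in growth room before rust pustule rating.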

[2] = tested on: Erysiphe graminis; assay: barley powdery mildew control on barley seedlings; assay type: in vivo; conditions: Blumeria graminis, 168 h; 100 ppm, 7 days
Procedure: Several compounds of the previous examples were again dissolved in acetone in an amount equal to 6% of the final volume and then suspended at a concentration of 100 ppm in purified water containing 250 ppm of the surfactant TREM 014 (polyhydric alcohol esters). This suspension was sprayed to the point of run-off on barley seedlings. The following day, the plants were inoculated with a spore suspension of the fungus Erysiphe graminis, causal agent of barley powdery mildew, and incubated in a growth room for 7 days. Disease ratings were then made. Treated plants had little or no powdery mildew in contrast to untreated plants which were covered with powdery mildew.

[3] = tested on: Venturia inaequalis; assay: apple scab control on apple seedlings; assay type: in vivo; conditions: Venturia inaequalis
Summary of the method: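 Apple seedlings sprayed to run-off with 100 ppm compound suspension (6% acetone, 250 ppm TREM 014 surfactant). Inoculated next day with Venturia inaequalis spores; 24 hours at 20° in saturated humidity, then 10-12 days in growth room. Scab lesions compared with untreated plants.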

[4] = tested on: Cercospora arachidicola; assay: peanut early leafspot control on peanut seedlings; assay type: in vivo; conditions: Mycosphaerella arachidis, 336 h
Summary of the method: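 Compounds dissolved in acetone (6% of final volume) and suspended at 100 ppm in water with 250 ppm TREM 014, sprayed to run-off on seedlings. Cercospora arachidicola inoculated next day; 24 h saturated humidity at 27°, then 14 days growth room before disease and leafspot rating.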

[5] = tested on: peanut seedlings; assay: phytotoxicity on peanut seedlings; assay type: in vivo; set-up: key: B: Phytotoxic burn; conditions: 100 ppm
Procedure: Compounds of the previous examples were again dissolved in acetone in an amount equal to 6% of the final volume and then suspended at a concentration of 100 ppm in purified water containing 250 ppm of the surfactant TREM 014 (polyhydric alcohol esters). This suspension was sprayed to the point of run-off on peanut seedlings. The following day, the plants were inoculated with a spore suspension of Cercospora arachidicola, causal agent of peanut early leafspot, and incubated in a saturated humidity chamber at 27° for 24 hours and then in a growth room for an additional 14 days, when disease ratings were made. Treated plants from successful treatments had few or no leafspots while the untreated plants had numerous leafspots on each leaf.

[6] = tested on: Erysiphe cichoracearum; assay: cucumber powdery mildew control on cucumber seedlings; assay type: in vivo; conditions: Golovinomyces cichoracearum, 168 h, 7 days
Summary of the method: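 Compounds at 100 ppm in water with 6% acetone and 250 ppm TREM 014 surfactant, sprayed to run-off on cucumber seedlings. Inoculation with Erysiphe cichoracearum spores the following day; disease rated after 7 days in a growth room against untreated plants.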

[7] = tested on: Pyricularia oryzae; assay: whole plant or invertebrate; assay type: in vivo; conditions: 168 h, read-out: % Control of Rice Blast
[8] = tested on: cucumber seedlings; assay: phytotoxicity on cucumber seedlings; assay type: in vivo; set-up: key: G: growth reduction; H: hormonal effects; conditions: 100 ppm
[9] = tested on: Pythium aphanadermatum; assay: Pythium control on coated corn seeds; assay type: in vivo; conditions: 504 h, 2 gm/kg seed, 49° F. 2 weeks then 70° F. 1 week
Procedure: Several compounds of the previous examples were incorporated into a proprietary formulation and used to coat corn seeds at a rate of 2 gm/kg seed. After being thoroughly coated, the seeds were allowed to air dry at room temperature. The seeds were then planted into soil amended with a mixture of the fungus Pythium aphanadermatum, sand, and corn meal at a rate sufficient to kill most untreated seeds. The seeds were held at 49° F. for 2 weeks and then at 70° F. for 1 additional week. After this time disease ratings were made.

[10] = tested on: Pythium aphanadermatum; assay: Pythium control on coated cotton seeds; assay type: in vivo; conditions: 168 h, 2 gm/kg seed, 1 week
From the text: Several compounds of the previous examples were incorporated into a proprietary formulation and used to coat cotton seeds at a rate of 2 gm/kg seed. After being thoroughly coated, the seeds were allowed to air dry at room temperature. The cotton seeds were then planted into soil amended with the fungus Pythium aphanadermatum, sand, and corn meal at a rate sufficient to kill most untreated seeds. The seeds were held at room temperature for 1 week, after which time disease ratings were made.

[11] = tested on: Rhizoctonia solani; assay: rice sheath blight control on rice seedlings; assay type: in vivo; conditions: Rhizoctonia solani, 168 h, 7 days
Summary of the method: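 Rice seedlings sprayed to run-off with 100 ppm compound suspension (6% acetone, 250 ppm surfactant), then inoculated next day with bran/mycelium of Rhizoctonia solani. After 7 days in a growth room, sheath blight disease was rated.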

[12] = tested on: Phytophthora infestans; assay: whole plant or invertebrate; assay type: in vivo; conditions: Phytophthora infestans, in Solanum lycopersicum, 168 h, read-out: % Control of Tomato Late Blight
[13] = tested on: Helminthosporium maydis; assay: southern corn leaf blight control on corn seedlings; assay type: in vivo; conditions: Bipolaris maydis, 168 h
Summary of the method: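 Corn seedlings were sprayed to run-off with 100 ppm compound (6% acetone, 250 ppm TREM 014), inoculated next day with H. maydis spores, then kept 24 h at 20° in saturated humidity and 7 more days in a growth room. Lesions were rated as disease score.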

[14] = tested on: Monilinia fructicola; assay: stone fruit brown rot colony growth inhibition on canned peach halves; assay type: cell-based; conditions: 120 h, dipped 3 minutes, five days, percent growth inhibition of colonies, read-out: % Control Brown Rot
From the text: Several compounds of the previous examples were again dissolved in acetone in an amount equal to 5% of the final volume and then suspended at a concentration of 100 ppm in purified water containing 700 ppm of the surfactant TREM 014 (polyhydric alcohol esters). Canned peach halves were dipped in this suspension for three minutes and then placed to air dry in sterile containers. Upon drying, the peach halves were inoculated with two pieces of Monilinia fructicola, causal agent of stone fruit brown rot, mycelium and then incubated in the sterile containers for five days. At that time the radii of the colonies' growth were measured on each peach. […] Percent disease contol (percent growth inhibition of colonies on treated peaches as compared to that of colonies on untreated peaches) is expressed in the table below.

[15] = tested on: Uromyces phaseoli; assay: bean rust control on bean seedlings; assay type: in vivo; conditions: 20 ppm
Procedure: Compounds of the previous examples were again dissolved in acetone in an amount equal to 6% of the final volume and then suspended at a concentration of 20 ppm in purified water containing 250 ppm of the surfactant TREM 014 (polyhydric alcohol esters). This suspension was sprayed to the point of run-off on bean seedlings. The following day, the plants were inoculated with a spore suspension of the fungus Uromyces phaseoli, causal agent of bean rust, and incubated in a saturated humidity chamber at 20° for 24 hours and then in a greenhouse for 7 days. Disease ratings were then made. Treated plants from successful treatments had few or no rust pustules in contrast to untreated plants which were covered with rust pustules.

[16] = tested on: 5 Phytophthora species; assay type: cell-based; conditions: 200.0 ppm in agar, 22° C., 6 days; controlled = radial growth 1 mm or less

C[Si](C)(Cn1ccnc1)c1ccc(C(F)(F)F)cc1 [Dimethyl(1H-imidazol-1-ylmethyl)(4-trifluoromethylphenyl)silane]
pest or weed control at 400 ppm ([1]; 400 ppm): 100% | pest or weed control at 100 ppm [2]: 100% | pest or weed control at 400 ppm ([3]; 400 ppm): 60% | pest or weed control at 100 ppm [4]: 36% | Phytotoxic burn [5]: B | pest or weed control at 100 ppm [6]: 100%

C[Si](C)(Cn1ccnc1)c1ccc(F)cc1 [Dimethyl(4-fluorophenyl)(1H-imidazol-1-ylmethyl)silane]
pest or weed control at 100 ppm [7]: 0% | Phytotoxicity (growth reduction or hormonal effects) [8]: G | pest or weed control at 100 ppm [1]: 80% | pest or weed control at 2000 mg/kg [9]: 15% | pest or weed control at 2000 mg/kg [10]: 0% | pest or weed control at 100 ppm [3]: 0% | pest or weed control at 100 ppm [11]: 0% | pest or weed control at 100 ppm [4]: 60% | pest or weed control at 100 ppm [12]: 0% | Phytotoxic burn [5]: B | pest or weed control at 100 ppm [13]: 0% | pest or weed control at 100 ppm [6]: 100%

C[Si](C)(Cn1ccnc1)c1ccc(-c2ccccc2)cc1 [(1,1'-Biphenyl-4-yl)dimethyl(1H-imidazol-1-ylmethyl)silane]
pest or weed control at 100 ppm [7]: 0% | pest or weed control at 100 ppm [1]: 100% | inhibition of growth at 100 ppm [14]: 83% | % Control Bean Rust [15]: 100% | pest or weed control at 2000 mg/kg [9]: 32% | pest or weed control at 2000 mg/kg [10]: 18% | pest or weed control at 100 ppm [3]: 80% | pest or weed control at 100 ppm [11]: 0% | pest or weed control at 100 ppm [4]: 100% | pest or weed control at 100 ppm [12]: 50% | No. of 5 Phytophthora species controlled in vitro [16]: 3 | pest or weed control at 100 ppm [13]: 90% | pest or weed control at 100 ppm [6]: 100%

C[Si](C)(Cn1ccnc1)c1ccc(Cl)cc1Cl [(2,4-Dichlorophenyl)dimethyl(1H-imidazol-1-ylmethyl)silane]
pest or weed control at 100 ppm [7]: 0% | Phytotoxicity (growth reduction or hormonal effects) [8]: H | pest or weed control at 100 ppm [1]: 90% | inhibition of growth at 100 ppm [14]: 100% | % Control Bean Rust [15]: 83% | pest or weed control at 100 ppm [2]: 100% | pest or weed control at 100 ppm [3]: 100% | pest or weed control at 100 ppm [11]: 0% | pest or weed control at 100 ppm [4]: 100% | pest or weed control at 100 ppm [12]: 0% | No. of 5 Phytophthora species controlled in vitro [16]: 5 | pest or weed control at 100 ppm [13]: 70% | pest or weed control at 100 ppm [6]: 100%
